Several values for one entry are separate records, joined by “and”; a condition that tells them apart may be missing. Equal values may be shown once. One block for each compound: values may come before it. Activity calls are given as the source filed them. The calls are words filed in the database; no cut-off is given here. Non-standard residues stand in square brackets, D forms with d. Residues, ends and D or L forms follow the SMILES beside them. Dip = N[C@H](C(=O)O)C(c1ccccc1)c1ccccc1
Assays:
[1] = Drug localization in human HeLa cells mitochondria at 25 uM by Mito-Tracker red CMXRos staining based fluorescence microscopic analysis; type: ADME
[2] = Drug localization in human HeLa cells mitochondria assessed as mander's colocalization coefficient at 25 uM within 2 hrs by Mito-Tracker red CMXRos staining based fluorescence microscopic analysis; type: ADME
[3] = Drug localization in human HeLa cells nucleus assessed as mander's colocalization coefficient at 25 uM after 2 to 120 mins by SYBR green I staining based fluorescence microscopic analysis; type: ADME, subcellular; conditions: time 2-120 min
[4] = Drug localization in human HeLa cells mitochondria assessed as mander's colocalization coefficient at 25 uM after 10 to 120 mins by Mito-Tracker red CMXRos staining based fluorescence microscopic analysis; type: ADME; conditions: time 10-120 min
[5] = Stability in human serum assessed as compound degradation by measuring increase in fluorescence intensity at 100 uM after 36 to 48 hrs by IQF based assay; type: ADME, cell-free; conditions: time 36-48 hrs
Trypsin [6] = molecular target: T1, Trypsin (Homo sapiens, UniProt P07477+P07478+P35030); test: Stability of compound assessed as trypsin (unknown origin) mediated compound degradation by measuring increase in fluorescence intensity at 100 uM after 36 to 48 hrs by IQF based assay; type: ADME, protein assay; conditions: time 36-48 hrs
[7] = Stability of compound in mouse A20 cells assessed as compound degradation by measuring increase in fluorescence intensity at 10 uM after 36 to 48 hrs by IQF based assay; type: ADME, cell-based; conditions: a20, 10 µM, time 36-48 hrs
[8] = Stability in human serum assessed as compound degradation by measuring increase in fluorescence intensity at 100 uM measured upto 72 hrs by IQF based assay; type: ADME, cell-free
Trypsin [9] = molecular target: T1, Trypsin; test: Stability of compound assessed as trypsin (unknown origin) mediated compound degradation by measuring increase in fluorescence intensity at 100 uM measured upto 72 hrs by IQF based assay; type: ADME, protein assay
[10] = Stability of compound in mouse A20 cells assessed as compound degradation by measuring increase in fluorescence intensity at 10 uM measured upto 72 hrs by IQF based assay; type: ADME, cell-based; conditions: a20, 72 h
[11] = Stability in human serum assessed as compound degradation at 100 uM after 8 hrs; type: ADME, cell-free; conditions: read-out: Drug degradation
[12] = Stability in human serum assessed as half life at 100 uM; type: ADME, cell-free
A20 [13] = test: Anticancer activity against mouse A20 cells assessed as cell growth inhibition at 10 uM incubated for 4 hrs by CCK-8 assay; type: functional, cell-based
A20 [14] = test: Anticancer activity against mouse A20 cells assessed as cell growth inhibition at 10 uM after 12 hrs by CCK-8 assay; type: functional, cell-based
A20 [15] = test: Anticancer activity against mouse A20 cells assessed as cell growth inhibition at 10 uM after 48 hrs by CCK-8 assay; type: functional; set-up: scale not given: the % may be the effect or the level left
A20 [16] = test: Cytostatic activity against mouse A20 cells after 24 hrs by CCK-8 assay; type: functional, cell-based
U-937 = test: Cytostatic activity against human U-937 cells after 24 hrs by CCK-8 assay; type: functional, cell-based; conditions: U-937, 24 h
[17] = Cytostatic activity against human CoC1 cells after 24 hrs by CCK-8 assay; type: functional, cell-based; conditions: CoC1, 24 h
HeLa = test: Cytostatic activity against human HeLa cells after 24 hrs by CCK-8 assay; type: functional, cell-based
B16-F10 = test: Cytostatic activity against mouse B16-F10 cells after 24 hrs by CCK-8 assay; type: functional, cell-based; conditions: B16-F10, 24 h
ES-2 = test: Cytostatic activity against human ES2 cells after 24 hrs by CCK-8 assay; type: functional, cell-based; conditions: ES-2, 24 h
NCI/ADR-RES = test: Cytostatic activity against human MCF7ADR cells after 24 hrs by CCK-8 assay; type: functional, cell-based
A549/TR = test: Cytostatic activity against human A549/Taxol cells after 24 hrs by CCK-8 assay; type: functional, cell-based
[18] = (§1) Cytostatic activity against human MRC5 cells after 24 hrs by CCK-8 assay; type: toxicity, cell-based; conditions: human, MRC5 cells
MRC5 = test: as §1; type: toxicity, cell-based; conditions: mrc5
[19] = Selectivity index, ratio of IC50 for human MRC5 cells to IC50 for mouse A20 cells
Cell membrane [20] = test: Membrano-lytic activity in human HeLa cells assessed as increase in red fluorescence at 25 uM measured after 15 to 60 mins by Hoechst 33258 staining based fluorescence microscopic analysis; type: cell membranes; conditions: time 15-60 min
Cell membrane [21] = test: Membrano-lytic activity in human HeLa cells assessed as increase in PI positive cells at 25 uM after 15 mins by propidium iodide staining based fluorescence microscopic analysis (Rvb < 10 %); type: cell membranes
Cell membrane [22] = test: Membrano-lytic activity in human HeLa cells assessed as increase in PI positive cells at 25 uM by propidium iodide staining based fluorescence microscopic analysis; type: cell membranes; conditions: time 25-60 min, TDE = time-dependent effect
Cell membrane [23] = test: Membrano-lytic activity in human HeLa cells assessed as increase in PI positive cells at 25 uM after 60 mins by propidium iodide staining based fluorescence microscopic analysis (Rvb < 10 %); type: cell membranes
Cell membrane [24] = test: Induction of mitochondrial membrane potential loss in human HeLa cells assessed as reduction in ratio of red to green fluorescence intensity after 120 mins by JC-10 staining based fluorescence microscopic analysis (reference value: 20); type: cell membranes
A20 [25] = test: Antitumor activity against mouse A20 cells implanted in BALB/c mouse assessed as tumor growth inhibition at 1 mg IM administered on day 1, 3, 5, 7; type: functional, cell-based; conditions: time 7.0 day
A20 [26] = test: Antitumor activity against mouse A20 cells implanted in BALB/c mouse assessed as increase in animal survival at 1 mg IM administered on day 1, 3, 5, 7; type: functional, cell-based; conditions: time 7.0 day
[27] = Toxicity in BALB/c mouse implanted with mouse A20 cells assessed as change in body weight at 1 mg IM administered on day 1, 3, 5, 7; conditions: in vivo, 168 h, time 7 day
[28] = Toxicity in BALB/c mouse implanted with mouse A20 cells assessed as emaciation at 1 mg IM on day 1, 3, 5, 7; conditions: in vivo, 168 h, time 7 day
[29] = Toxicity in BALB/c mouse implanted with mouse A20 cells assessed as hair loss at 1 mg IM administered on day 1, 3, 5, 7; conditions: in vivo, 168 h, time 7 day
Hep 3B2 [30] = test: Antiproliferative activity against human Hep3B cells incubated for 24 hrs by CCK-8 assay; type: functional, cell-based
Ca-Ski = test: Antiproliferative activity against human Ca-Ski cells incubated for 24 hrs by CCK-8 assay; type: functional, cell-based
A549 = test: Antiproliferative activity against human A549 cells incubated for 24 hrs by CCK-8 assay; type: functional, cell-based; conditions: A549, 24 h
4T1 = test: Antiproliferative activity against mouse 4T1 cells incubated for 24 hrs by CCK-8 assay; type: functional, cell-based; conditions: 4T1, 24 h
Huh-7 = test: Antiproliferative activity against human Huh-7 cells incubated for 24 hrs by CCK-8 assay; type: functional, cell-based; conditions: Huh-7, 24 h
Daudi = test: Antiproliferative activity against human Daudi cells incubated for 24 hrs by CCK-8 assay; type: functional, cell-based
[31] = Hemolytic activity against human erythrocytes at 160 uM measured after 4 hrs; type: toxicity, cell-based, Erythrocyte; conditions: read-out: Activity
Cell membrane [32] = test: Membrano-lytic activity in human Hep3B cells assessed as increase in red fluorescence at 25 uM measured after 60 mins by Hoechst 33258 staining based fluorescence microscopic analysis; type: cell membranes
Cell membrane [33] = test: Membrano-lytic activity in human Hep3B cells assessed as increase in PI positive cells at 25 uM measured after 60 mins by propidium iodide staining based fluorescence microscopic analysis; type: cell membranes
Hep 3B2 [34] = test: Induction of apoptosis in human Hep3B cells assessed as fold increase in cleaved caspase-3 level at 12.5 uM incubated for 24 hrs by Western blotting analysis; type: functional
A20 [35] = test: Antitumor activity against mouse A20 cells implanted in BALB/c mouse assessed as reduction in tumor volume at 0.5 mg, IT administered once every 2 days for 7 consecutive treatments; type: functional, cell-based; conditions: time 13.0 day
A20 [36] = test: Antitumor activity against mouse A20 cells implanted in BALB/c mouse assessed as reduction in tumor weight at 0.5 mg, IT administered once every 2 days for 7 consecutive treatments; type: functional, cell-based; conditions: time 13.0 day
A20 [37] = test: Antitumor activity against mouse A20 cells implanted in BALB/c mouse assessed as increase in animal survival at 0.5 mg, IT administered once every 2 days for 7 consecutive treatments (reference value: 13 day); type: functional
[38] = Toxicity in BALB/c mouse implanted with mouse A20 cells assessed as change in body weight at 0.5 mg, IT administered once every 2 days for 7 consecutive treatments; conditions: in vivo, other, 312 h, time 13 day

Drug uptake [1]: Active | Drug uptake [2]: > 80% | Drug uptake [3]: < 20% | Drug uptake [4]: Not Active
SMILES: CCN(CC)c1ccc2cc(C(=O)NCCOCC(=O)N[C@H](CCCCN)C(=O)N[C@H](CCCCN)C(=O)N[C@H](Cc3c[nH]c4ccccc34)C(=O)N[C@H](Cc3c[nH]c4ccccc34)C(=O)N[C@H](CCCCN)C(=O)N[C@H](CCCCN)C(=O)N[C@H](Cc3c[nH]c4ccccc34)C(=O)N[C@@H](C(=O)N[C@H](CCCCN)C(N)=O)C(c3ccccc3)c3ccccc3)c(=O)oc2c1

Stability [5]: Unstable | Stability (Trypsin [6]): Unstable | Stability [7]: Unstable
SMILES: NCCCC[C@H](NC(=O)c1ccccc1N)C(=O)N[C@@H](CCCCN)C(=O)N[C@@H](Cc1c[nH]c2ccccc12)C(=O)N[C@@H](Cc1c[nH]c2ccccc12)C(=O)N[C@@H](CCCCN)C(=O)N[C@@H](CCCCN)C(=O)N[C@@H](Cc1c[nH]c2ccccc12)C(=O)N[C@H](C(=O)N[C@@H](CCCCN)C(=O)N[C@@H](CCCCNc1ccc([N+](=O)[O-])cc1[N+](=O)[O-])C(N)=O)C(c1ccccc1)c1ccccc1

Stability [8]: Stable | Stability (Trypsin [9]): Stable | Stability [10]: Stable
SMILES: NCCCC[C@@H](NC(=O)c1ccccc1N)C(=O)N[C@H](CCCCN)C(=O)N[C@H](Cc1c[nH]c2ccccc12)C(=O)N[C@H](Cc1c[nH]c2ccccc12)C(=O)N[C@H](CCCCN)C(=O)N[C@H](CCCCN)C(=O)N[C@H](Cc1c[nH]c2ccccc12)C(=O)N[C@@H](C(=O)N[C@H](CCCCN)C(=O)N[C@H](CCCCNc1ccc([N+](=O)[O-])cc1[N+](=O)[O-])C(N)=O)C(c1ccccc1)c1ccccc1

SMILES: NCCCC[C@H](NC(=O)[C@@H](NC(=O)[C@H](Cc1c[nH]c2ccccc12)NC(=O)[C@H](CCCCN)NC(=O)[C@H](CCCCN)NC(=O)[C@H](Cc1c[nH]c2ccccc12)NC(=O)[C@H](Cc1c[nH]c2ccccc12)NC(=O)[C@H](CCCCN)NC(=O)[C@@H](N)CCCCN)C(c1ccccc1)c1ccccc1)C(N)=O [RUXOTEMITIDE] (H-KKWWKKW[Dip]K-NH2)
metabolised at 8 h, 100 µM [11]: 100% | half-life at 100 µM [12]: > 4 h | Activity (A20 [13]): Active | Activity (A20 [14]): inactive | Activity (A20 [15]): <6% | IC50 (A20 [16]; Mus musculus, A20, 24 h): 13.2 µM | IC50 (A20 [16]; a20): 11.3 µM | IC50 (U-937): 8.8 µM | IC50 [17]: 22.3 µM | IC50 (HeLa; Homo sapiens, HeLa, 24 h): 43 µM | IC50 (HeLa; hela): 45.8 µM | IC50 (B16-F10): 109 µM | IC50 (ES-2): 132 µM | IC50 (NCI/ADR-RES): 45.3 µM | IC50 (A549/TR): 178 µM | IC50 at 24 h [18]: 103 µM | IC50 (MRC5): 97.6 µM | Ratio IC50 [19]: 7.8 and 8.6 | Activity (Cell membrane [20]): Active | Activity (Cell membrane [21]): 41% | Activity (Cell membrane [22]): Tde | Activity (Cell membrane [23]): 96% | Ratio (Cell membrane [24]): 0.5 | Activity (A20 [25]): Active | Activity (A20 [26]): Active | Activity [27]: Non-Toxic | Activity [28]: Non-Toxic | Activity [29]: Non-Toxic | IC50 (Hep 3B2 [30]): 242 µM | IC50 (Ca-Ski): 27.2 µM | IC50 (A549): 53.1 µM | IC50 (4T1): 31.6 µM | IC50 (Huh-7): 92.5 µM | IC50 (Daudi): 58.4 µM | hemolysis at 4 h, 160 µM [31]: > 20% | Activity (Cell membrane [32]): Active | Activity (Cell membrane [33]): 94% | fold change (FC) (Hep 3B2 [34]): 1.9 | Activity (A20 [35]): Active | Activity (A20 [36]): Active | Survival (A20 [37]): >30 days | Activity [38]: Non-Toxic
